Laboratory results as given in BigSolDB 2.1.

CCCCC1=NC2(CCCC2)C(=O)N1Cc1ccc(-c2ccccc2-c2nn[nH]n2)cc1
Settings	solubility (mole fraction)
in 1,4-dioxane, 287.9 K	0.000466
in 1,4-dioxane, 293.45 K	0.000634
in 1,4-dioxane, 298 K	0.000832
in 1,4-dioxane, 303.65 K	0.00112
in 1,4-dioxane, 308.2 K	0.00142
in 1,4-dioxane, 312.9 K	0.00183
in 1,4-dioxane, 318.05 K	0.00227
in 1,4-dioxane, 322.85 K	0.00278
in THF, 278.3 K	0.00127
in THF, 282.85 K	0.00152
in THF, 288.1 K	0.00184
in THF, 292.95 K	0.00229
in THF, 297.7 K	0.00277
in THF, 303.15 K	0.00332
in THF, 308.05 K	0.00396
in THF, 312.7 K	0.00479
in THF, 318.35 K	0.00581
in THF, 322.75 K	0.00687
in acetone, 278.35 K	0.000284
in acetone, 283.15 K	0.000364
in acetone, 288.35 K	0.000444
in acetone, 293.6 K	0.00053
in acetone, 298.25 K	0.000678
in acetone, 302.95 K	0.000861
in acetone, 308.4 K	0.00105
in acetone, 312.75 K	0.00129
in acetone, 318.55 K	0.00158
in acetone, 323.1 K	0.00192
in chloroform, 277.7 K	0.0012
in chloroform, 283.3 K	0.00131
in chloroform, 287.7 K	0.00146
in chloroform, 292.7 K	0.00161
in chloroform, 297.75 K	0.00179
in chloroform, 302.85 K	0.00201
in chloroform, 307.8 K	0.00225
in chloroform, 313.4 K	0.00259
in chloroform, 317.8 K	0.00294
in chloroform, 323 K	0.00335
in ethanol, 278.6 K	0.000333
in ethanol, 283.55 K	0.000489
in ethanol, 288.5 K	0.000627
in ethanol, 292.7 K	0.000809
in ethanol, 297.8 K	0.00106
in ethanol, 303.05 K	0.00122
in ethanol, 308.5 K	0.00159
in ethanol, 313.3 K	0.0021
in ethanol, 318.5 K	0.00263
in ethanol, 323.6 K	0.00341
